Converted amounts (≈) assume the structure as drawn. Where two headings read alike, the source gives them in different places.
Tested on: L1210 Leukämiezellen
Assay: Colony formation of L1210 leukemia cells in soft agar
Type: cell-based, Maus
Details: for IC50: Mus musculus
Description: Die zytostatische Wirksamkeit der erfindungsgemäßen Verbindungen wurde anhand von L1210 Leukämiezellen der Maus getestet. Hierzu wurde die Koloniebildung von L1210 Leukämiezellen in Agarplatten herangezogen. Diese Methode dient zum Nachweis des Einflusses der Testsubstanzen auf das Wachstumsverhalten der Zellen nach Inkubation von 1 Stunde oder über mehrere Generationen. Bei einer Zelzykluszeit von 10-12 Stunden werden dabei in der Testzeit von 7 Tagen etwa 14 aufeinanderfolgende Generationen beobachtet. Die erfindungsgemäßen zytostatisch wirksamen Substanzen bewirken in diesem Test eine Reduktion der zu beobachtenden Koloniezahl gegenüber einer unbehandelten Kontrollprobe.
Einzelheiten des Testverfahrens ergeben sich aus der nachfolgenden Verfahrensweise zur Ermittlung der Koloniebildung.
Verfahrensweise zur Ermittlung der Koloniebildung von L1210 Leukämiezellen in Soft-Agar
500 Leukämiezellen pro Platte wurden mit unterschiedlichen Konzentrationen der Testsubstanz 1 Stunde bei 37°C inkubiert. Anschließend wurden die Zellen zweimal mit McCoy5A-Medium gewaschen und schließlich in Petrischalen nach Zugabe von 0,3 % Agar ausgegossen. Kontrollen wurden lediglich mit frischem Medium inkubiert. Anstelle der einstündigen Inkubation wurden in manchen Fällen unterschiedliche Konzentrationen und Testsubstanzen der oberen Agarschicht zugemischt, um so eine kontinuierliche Exposition der Zellen über die gesamte Inkubationszeit zu erreichen. Nach Erstarren des Agars wurden die Platten im Brutschrank 7 Tage bei 37°C inkubiert (5 Vol.-% CO₂, 94 % relative Luftfeuchtigkeit). Anschließend wurde die Zahl der entstandenen Kolonien mit einem Durchmesser von mehr als 60 µm gezählt. Die Ergebnisse wurden angegeben als Koloniezahl in behandelten Agarplatten in Prozent der unbehandelten Kontrolle. Aus der so erhaltenen Dosiswirkungskruve wurde die IC₅₀ als Maß für die Wirksamkeit der Substanz ermittelt. Die Ergebnisse für die hier beschriebenen Verbindungen im Vergleich zu Adriamycin sind in der nachfolgenden Tabelle 1 zusammengefaßt.

[1] = L1210, 1 h incubation with substance at 37°C, cells washed twice, then plated in 0,3 % agar for 7 days, colonies > 60 µm counted, read-out: 1h-Inkubation IC50
[2] = L1210, 168 h, continuous exposure: substance mixed into upper agar layer for the whole 7-day incubation at 37°C, colonies > 60 µm counted, percent of untreated control, read-out: Dauerinkubation IC50
[3] = 1 h incubation with substance at 37°C, cells washed twice, then plated in 0,3 % agar for 7 days, colonies > 60 µm counted
[4] = continuous exposure: substance mixed into upper agar layer for the whole 7-day incubation at 37°C, colonies > 60 µm counted, percent of untreated control
[5] = L1210, 168 h, read-out: Dauerinkubation IC50
[6] = L1210, read-out: 1h-Inkubation IC50

Work on `CC[C@@]1(O)C[C@H](O[C@H]2C[C@H](NC(=O)C(F)(F)F)C[C@H](C)O2)c2c(O)c3c(c(O)c2[C@H]1O)C(=O)c1cccc(O)c1C3=O` [Beispiel 52, 7-O-(4-Desoxy-3-N-trifluoracetyl-α-L-daunosaminyl)-β-rhodomycinon] yielded an IC50 [1] of 0.66 mg/L (≈ 1.11 µM).
In the case of `CC[C@@]1(O)C[C@H](O)c2c(O)c3c(c(O)c2[C@H]1O[C@H]1C[C@H](NC(=O)C(F)(F)F)[C@@H](OC(=O)c2ccc([N+](=O)[O-])cc2)[C@H](C)O1)C(=O)c1cccc(O)c1C3=O` [Beispiel 8, 10-0-(4-0-Paranitrobenzoyl-3-N-trifluor-acetyl-α-L-acosaminyl)-β-rhodomycinon], the IC50 [2] is reported as > 1 mg/L and the IC50 [1] is reported as > 1 mg/L.
`CC[C@@]1(O)C[C@H](O[C@H]2C[C@@H](N)[C@@H](O)[C@H](C)O2)c2c(O)c3c(c(O)c2[C@H]1O)C(=O)c1cccc(O)c1C3=O` [Beispiel 46, 7-O-α-L-Ristosaminyl-β-rhodomycinon] was tested, and the IC50 [1] was 0.11 mg/L (≈ 0.213 µM).
For `CC[C@@]1(O)C[C@H](O[C@H]2C[C@H](N(C)C)[C@H](O)[C@H](C)O2)c2c(O)c3c(c(O)c2[C@H]1O[C@H]1C[C@H](N)[C@@H](O)[C@H](C)O1)C(=O)c1cccc(O)c1C3=O` [Beispiel 40, 10-0-α-L-Acosaminyl-7-0-α-L-rhodosaminyl-β-rhodomycinon], the IC50 [2] was 0.85 mg/L (≈ 1.26 µM) and the IC50 [1] was > 1 mg/L.
With `CC[C@@]1(O)C[C@H](O[C@H]2C[C@H](NC(=O)C(F)(F)F)[C@H](OC(=O)c3ccc([N+](=O)[O-])cc3)[C@H](C)O2)c2c(O)c3c(c(O)c2[C@H]1O[C@@H]1C[C@H](NC(=O)C(F)(F)F)[C@H](OC(=O)c2ccc([N+](=O)[O-])cc2)[C@H](C)O1)C(=O)c1cccc(O)c1C3=O` [Beispiel 27, 7,10-Di-O-(4-O-paranitrobenzoyl-3-N-trifluoracetyl-α-L-daunosaminyl)-β-rhodomycinon] the “1h-Inkubation IC50” value [3] was >1 mg/L and the “Dauerinkubation IC50” value [4] was >1 mg/L.
In the case of `CC[C@@]1(O)C[C@H](O)c2c(O)c3c(c(O)c2[C@H]1O[C@H]1C[C@H](N)[C@H](O)[C@H](C)O1)C(=O)c1cccc(O)c1C3=O` [Beispiel 11, 10-0-α-L-Daunosaminyl-β-rhodomycinon], the IC50 [2] is reported as > 1 mg/L and the IC50 [1] is reported as > 1 mg/L.
For `CC[C@@]1(O)C[C@H](O[C@H]2C[C@H](NC(=O)C(F)(F)F)[C@H](OC(=O)c3ccc([N+](=O)[O-])cc3)[C@H](C)O2)c2c(O)c3c(c(O)c2[C@H]1OC(=O)C(F)(F)F)C(=O)c1cccc(O)c1C3=O` [Beispiel 18, 7-O-(4-O-Paranitrobenzoyl-3-N-trifluoracetyl-α-L-daunosaminyl)-10-O-trifluoracetyl-β-rhodomycinon], the IC50 [2] was 0.13 mg/L (≈ 0.152 µM) and the IC50 [1] was > 1 mg/L.
`CC[C@@]1(O)C[C@H](O[C@H]2C[C@H](NCC#N)[C@H](O)[C@H](C)O2)c2c(O)c3c(c(O)c2[C@H]1O[C@H]1C[C@H](NCC#N)[C@H](O)[C@H](C)O1)C(=O)c1cccc(O)c1C3=O` [Beispiel 30, 7,10-O-Di-(3-N-Cyanomethyl-α-L-daunosaminyl)-β-rhodomycinon] was tested, and the IC50 [5] was 0.5 mg/L (≈ 0.692 µM) and the IC50 [6] was > 1 mg/L.
`CC[C@@]1(O)C[C@H](O[C@H]2C[C@H](NC(=O)C(F)(F)F)[C@@H](O)[C@H](C)O2)c2c(O)c3c(c(O)c2[C@H]1O)C(=O)c1cccc(O)c1C3=O` [Beispiel 45, 7-O-(3-N-Trifluoracetyl-α-L-acosaminyl)-ß-rhodomycinon] was tested, and the IC50 [1] was 0.29 mg/L (≈ 0.474 µM).
`COc1cccc2c1C(=O)c1c(O)c3c(c(O)c1C2=O)C[C@@](O)(C(=O)CO)C[C@@H]3O[C@H]1C[C@H](N)[C@H](O)[C@H](C)O1` [Adriamycin, reference compound] showed an IC50 [5] of 0.02 mg/L (≈ 0.0368 µM) and an IC50 [6] of 0.04 mg/L (≈ 0.0736 µM).
In the case of `CC[C@@]1(O)C[C@H](O[C@H]2C[C@H](N)[C@@H](O)[C@H](C)O2)c2c(O)c3c(c(O)c2[C@H]1O[C@H]1C[C@H](N)[C@H](O)[C@H](C)O1)C(=O)c1cccc(O)c1C3=O` [Beispiel 37, 7-O-α-L-Acosaminyl-10-0-α-L-daunosaminyl-β-rhodomycinon], the IC50 [2] is reported as > 1 mg/L and the IC50 [1] is reported as > 1 mg/L.
For `CC[C@@]1(O)C[C@H](O[C@H]2C[C@H](NC(=O)C(F)(F)F)[C@@H](OC(=O)c3ccc([N+](=O)[O-])cc3)[C@H](C)O2)c2c(O)c3c(c(O)c2[C@H]1OC(=O)C(F)(F)F)C(=O)c1cccc(O)c1C3=O` [Beispiel 13, 7-0-(4-0-Paranitrobenzoyl-3-N-trifluoracetyl-α-L-acosaminyl)-10-0-trifluoracetyl-β-rhodomycinon], the IC50 [2] was 0.03 mg/L (≈ 0.035 µM) and the IC50 [1] was > 1 mg/L.
`CC[C@@]1(O)C[C@H](O[C@H]2C[C@H](NCC#N)[C@H](O)[C@H](C)O2)c2c(O)c3c(c(O)c2[C@H]1O)C(=O)c1cccc(O)c1C3=O` [Beispiel 17, 7-O-(3-N-Cyanomethyl-α-L-daunosaminyl)-β-rhodomycinon] was tested, and the IC50 [5] was 0.004 mg/L (≈ 0.00721 µM) and the IC50 [6] was 0.09 mg/L (≈ 0.162 µM).
For `CC[C@@]1(O)C[C@H](O[C@@H]2O[C@@H](C)[C@@H](OC(C)=O)[C@@H](OC(C)=O)[C@H]2I)c2c(O)c3c(c(O)c2[C@H]1OC1CCCCO1)C(=O)c1cccc(O)c1C3=O` (stereo partly drawn) [Beispiel 24, 7-O-(3,4-Di-O-acetyl-2,6-didesoxy-2-iodo-α-L-talopyranosyl)-10-O-tetrahydropyranyl-β-rhodomycinon], the “1h-Inkubation IC50” value [3] was >1 mg/L and the “Dauerinkubation IC50” value [4] was >1 mg/L.
For `CC[C@@]1(O)C[C@H](O)c2c(O)c3c(c(O)c2[C@H]1O[C@H]1C[C@H](NC(=O)C(F)(F)F)[C@H](OC(=O)c2ccc([N+](=O)[O-])cc2)[C@H](C)O1)C(=O)c1cccc(O)c1C3=O` [Beispiel 9, 10-0-(4-0-Paranitrobenzoyl-3-N-trifluoracetyl-α-L-daunosaminyl)-β-rhodomycinon], the IC50 [2] was 0.6 mg/L (≈ 0.789 µM) and the IC50 [1] was > 10 mg/L.
In the case of `CC[C@@]1(O)C[C@H](O[C@H]2C[C@H](NC(=O)C(F)(F)F)[C@@H](OCc3ccccc3)[C@H](C)O2)c2c(O)c3c(c(O)c2[C@H]1O)C(=O)c1cccc(O)c1C3=O` [Beispiel 49, 7-O-(4-O-Benzyl-3-N-trifluoracetyl-α-L-acosaminyl)-β-rhodomycinon], the IC50 [6] is reported as > 1 mg/L.
In the case of `CC[C@@]1(O)C[C@H](O[C@H]2C[C@H](N)[C@@H](OCc3ccccc3)[C@H](C)O2)c2c(O)c3c(c(O)c2[C@H]1O)C(=O)c1cccc(O)c1C3=O` [Beispiel 48, 7-O-(4-O-Benzyl-α-L-acosaminyl)-β-rhodomycinon], the IC50 [1] is reported as 0.095 mg/L (≈ 0.157 µM).
In the case of `CC[C@@]1(O)C[C@H](O[C@H]2C[C@H](NC(=O)C(F)(F)F)[C@@H](OC(=O)c3ccc([N+](=O)[O-])cc3)[C@H](C)O2)c2c(O)c3c(c(O)c2[C@H]1O[C@H]1C[C@H](NC(=O)C(F)(F)F)[C@H](OC(=O)c2ccc([N+](=O)[O-])cc2)[C@H](C)O1)C(=O)c1cccc(O)c1C3=O` [Beispiel 35, 7-0-(4-0-Paranitrobenzoyl-3-N-trifluoracetyl-α-L-acosaminyl)-10-0-(4-0-paranitrobenzoyl-3-N-trifluoracetyl-α-L-daunosaminyl)-β-rhodomycinon], the IC50 [5] is reported as > 1 mg/L and the IC50 [6] is reported as > 1 mg/L.
For `CC[C@@]1(O)C[C@H](O[C@H]2C[C@H](N(C)C)[C@H](OC(=O)c3ccccc3)[C@H](C)O2)c2c(O)c3c(c(O)c2[C@H]1O[C@H]1C[C@H](NC(=O)C(F)(F)F)[C@@H](OC(=O)c2ccc([N+](=O)[O-])cc2)[C@H](C)O1)C(=O)c1cccc(O)c1C3=O` [Beispiel 38, 7-0-(4-0-Benzoyl-α-L-rhodosaminyl)-10-0-(4-0-paranitrobenzoyl-3-N-trifluoracetyl-α-L-acosaminyl)-β-rhodomycinon], the IC50 [2] was > 1 mg/L and the IC50 [1] was > 1 mg/L.

— patent EP0286926A2, “Semi-synthetic rhodomycins, method for their preparation and their use as cytostatics” (BEHRINGWERKE Aktiengesellschaft, priority 1987, dated 1988)
